These results are taken from patent US20080015189A1, “Antimicrobial photoinactivation using chalcogen analogs of benzo(A)phenoxazinium dyes” (The General Hospital Corporation, priority 2006, published 2008).

The conditions of series [1]: reference standard value, 25° C.; cited from earlier work.
Series [2] deals with Escherichia coli (ATCC 25922). Nature of the series: Photodynamic inactivation of E. coli (survival fraction by CFU after red light). The series is classed as cell-based. The note with it: 5 μM dye. From the text: (§1) The microorganisms studied were Escherichia coli (ATCC 25922), Enterococcus faecalis (ATCC 29212), and Candida albicans (ATCC 18804). The microorganism species chosen to evaluate the photoactivities of the dyes in the present study are important pathogens in the type of infections, such as wounds and burns, likely to be amenable to photodynamic therapy (PDT). E. faecalis is typical of Enterococci that frequently develop vancomycin resistance and are important nocosomial pathogens in post-surgical wounds and burns.^42 Although E. coli is generally thought of as an intestinal or urinary tract pathogen, there is increasing concern about its presence in wound infections and its ability to develop extended spectrum beta-lactamase resistance.^43,44 C. albicans is increasingly found in nocosomial infections in burns^45 and, to a lesser extent, in surgical wounds.^46
(§2) Cells were grown at 37° C. in aerobic conditions in a shaker at 150 rpm. Brain-heart infusion broth (Difco, BD Diagnostic Systems, Sparks, Md.) was used for E. coli and E. faecalis, YM medium (Difco) was used for C. albicans. Exponential cultures obtained by reculturing stationary overnight precultures were used for all experiments. E. coli and E. faecalis were grown in fresh medium for approximately 1 h to a density of 10^8 cells/mL; the OD values at 650 nm were 0.6. C. albicans was grown for approximately 4 h to approximate density of 10^7 cells/mL corresponding to an OD of 6 at 650 nm (ten fold dilution measured). Exact cell numbers were confirmed by counting colony forming units obtained after serial dilution on square BHI (or YM for Candida) agar plates.
(§3) Stock solutions (2 mM) of the three chalcogen dyes were prepared in water and stored at 4° C. in the dark for no longer than 1 month before use. A non-coherent light source with interchangeable fiber bundles (LumaCare, London, UK) was employed. Thirty-nm band pass filters allowed total powers of roughly 1 W to be obtained from 630+/−15 nm for EtNBA (1), 652+/−15 nm for EtNBS (2), and 660+/−15 nm for EtNBSe (3).
Suspensions of microorganisms were incubated for 10 minutes with photosensitizer in the dark at room temperature. Unbound photosensitizer was washed out by centrifugation of the mixture of dye and microorganisms for 6 minutes at 1550g, followed by resuspension of washed pellets in 10 mL PBS without Ca^++/Mg^++. Aliquots (200 μL) of these suspensions were used for photodynamic inactivation (PDI) experiments; the remaining suspensions were centrifuged again, and the pellets were dissolved in 3 mL 10% SDS for at least 24 hours. These suspensions were used for photosensitizer uptake measurement. The fluorescence of dissolved pellets was measured on a spectrofluorimeter (FluoroMax3, SPEX Industries, Edison, N.J.). For EtNBA (1), the excitation wavelength was 625 nm, and the emission spectra of the solution were recorded from 630 to 750 nm. […] For EtNBSe (3), the excitation wavelength was 655 nm, and the emission was recorded in the range from 660 to 750 nm. The fluorescence was calculated from the height of the peaks recorded. […] Uptake values were obtained by dividing the number of nmol of sensitizer in the dissolved pellet by the number of colony-forming units (CFU) obtained by serial dilutions and the number of photosensitizer molecules/cell calculated using Avogadro's number.
(§4) Illumination was performed either after or before excess dye was washed out. […] Exact power was measured with a laser power meter (model FM/GS, Coherent, Santa Clara, Calif.).

The nature of series [3]: Partition coefficient between 2-octanol and pH 7.4 buffered saline. Type of series: physicochemical. To be noted: for LogP, partition coefficient: pH 7.4. From the text: (§5) The relative photoactivities of the three photosensitizers studied herein were gauged by their abilities to generate singlet oxygen (^1O2) when illuminated with a beam of red light having an adjusted intensity such that each dye absorbed the same number of photons per unit time. […] Finally, because of the relevance of lipophilicity to the present studies, the partition coefficients for the PS between 2-octanol and phosphate-buffered saline (pH=7.4) are listed^18.

Series [4] relates to Enterococcus faecalis (ATCC 29212). The experiment in a line: Dye uptake and binding by microbial cells, E. faecalis (fluorescence of SDS-dissolved pellets). The note with it: 2 μM dye; for cell uptake (molecules per cell), rank order: 10 minute incubation, wash. The series is classed as cell-based. As for the experimental part: (§6) Suspensions of microorganisms were incubated for 10 minutes with photosensitizer in the dark at room temperature. Unbound photosensitizer was washed out by centrifugation of the mixture of dye and microorganisms for 6 minutes at 1550g, followed by resuspension of washed pellets in 10 mL PBS without Ca^++/Mg^++. Aliquots (200 μL) of these suspensions were used for photodynamic inactivation (PDI) experiments; the remaining suspensions were centrifuged again, and the pellets were dissolved in 3 mL 10% SDS for at least 24 hours. These suspensions were used for photosensitizer uptake measurement. The fluorescence of dissolved pellets was measured on a spectrofluorimeter (FluoroMax3, SPEX Industries, Edison, N.J.). For EtNBA (1), the excitation wavelength was 625 nm, and the emission spectra of the solution were recorded from 630 to 750 nm. For EtNBS (2), the excitation wavelength was 645 nm, and the range for emission was 650 to 750nm. For EtNBSe (3), the excitation wavelength was 655 nm, and the emission was recorded in the range from 660 to 750 nm. The fluorescence was calculated from the height of the peaks recorded. Calibration curves were made from pure photosensitizer dissolved in 10% SDS and used for determination of sensitizer concentration in the suspension. Uptake values were obtained by dividing the number of nmol of sensitizer in the dissolved pellet by the number of colony-forming units (CFU) obtained by serial dilutions and the number of photosensitizer molecules/cell calculated using Avogadro's number.
(§7) In order to do so, the uptake of dye was measured in terms of molecules per cell by carrying out 10 minute incubations with the same concentration of dyes that was used for photoinactivation, followed by a wash to remove residual incubating solution.
(§8) The bacterial pellets resulting from the incubation with photosensitizer were dissolved in 10% SDS to give a homogeneous solution, and comparison of the resulting fluorescence intensities with a calibration curve prepared with known concentrations of dye in the same solvent yielded the amount of dye in the pellet. […] For the fungus C. albicans, an even higher concentration of dye (20 μM) was used, because the eukaryotic cells are ten times bigger than the prokaryotic bacterial cells.

In series [5] the test system is Candida albicans (ATCC 18804). The experiment in a line: Photodynamic inactivation of C. albicans (survival fraction by CFU after red light). Type of series: cell-based. To be noted: 20 μM dye, wash.
Source text: as §1
Cells were grown at 37° C. in aerobic conditions in a shaker at 150 rpm. […] C. albicans was grown for approximately 4 h to approximate density of 10^7 cells/mL corresponding to an OD of 6 at 650 nm (ten fold dilution measured). […]
Suspensions of microorganisms were incubated for 10 minutes with photosensitizer in the dark at room temperature. […] The fluorescence of dissolved pellets was measured on a spectrofluorimeter (FluoroMax3, SPEX Industries, Edison, N.J.). For EtNBA (1), the excitation wavelength was 625 nm, and the emission spectra of the solution were recorded from 630 to 750 nm. […] For EtNBSe (3), the excitation wavelength was 655 nm, and the emission was recorded in the range from 660 to 750 nm. The fluorescence was calculated from the height of the peaks recorded. […] Uptake values were obtained by dividing the number of nmol of sensitizer in the dissolved pellet by the number of colony-forming units (CFU) obtained by serial dilutions and the number of photosensitizer molecules/cell calculated using Avogadro's number.
as §4

For series [6], the system named is Enterococcus faecalis (ATCC 29212). Nature of the series: Photodynamic inactivation of E. faecalis (survival fraction by CFU after red light). The series is classed as cell-based. To be noted: 2 μM dye.
Source text: as §1, §2, §3, §6
Illumination was performed either after or before excess dye was washed out. Aliquots of 200 μL of cell suspension were placed in 96-well plates and illuminated with appropriate light at room temperature. Fluences ranged from 0 to 80 Jcm^−2 at an irradiance of 60-100 mWcm^−2. Exact power was measured with a laser power meter (model FM/GS, Coherent, Santa Clara, Calif.).

Series [7] is described as follows: Quantum yield of singlet oxygen formation (1,3-diphenylisobenzofuran bleaching). Type of series: physicochemical. To be noted: 1,3-diphenylisobenzofuran method, relative to Methylene Blue, 25° C.
Source text: All solvents were reagent grade and used as received.
as §5

For series [8] the following is noted: in vivo; cited from earlier work.
For series [9], the system named is Escherichia coli (ATCC 25922). The experiment in a line: Dye uptake and binding by microbial cells, E. coli (fluorescence of SDS-dissolved pellets). The note with it: 5 μM dye; for cell uptake (molecules per cell), rank order: 10 minute incubation, wash. Type of series: cell-based. The protocol: as §6, §7, §8
The test system of series [10] is Candida albicans (ATCC 18804). The experiment in a line: Dye uptake and binding by microbial cells, C. albicans (fluorescence of SDS-dissolved pellets). The series is classed as cell-based. The note with it: 20 μM dye. The protocol:
as §6, §7, §8

Series [11] can be described thus: Absorption and fluorescence spectra, fluorescence quantum yield. The note with it: for λfl(nm), fluorescence maximum: in ethanol; for λabs(nm), absorption maximum: in ethanol containing 0.1% acetic acid; for Φfl, absolute fluorescence quantum yield: relative to Cresyl Violet standard at 25° C.
Experimental: UV/visible absorption spectra were recorded using an HP 8453 spectrophotometer. Corrected fluorescence spectra were recorded using a SPEX Fluorolog2 (solvent measurements) or a FluoroMax3 (microorganism measurements), SPEX Industries, Edison, N.J. Fluorescence quantum yields were measured relative to Cresyl Violet standard at 25° C.^32 Quantum yields for ^1O2 formation were determined by measuring the ^1O2-mediated bleaching of 1,3-diphenylisobenzofuran^12 relative to Methylene Blue (0.50)^33 at 25° C. ^1H NMR spectra were obtained using a Varian 400 MHz spectrometer with TMS as internal standard.

A value given as a limit tells only on which side of the number the result lay.

Turning to `CN(C)c1ccc2nc3ccc(=[N+](C)C)cc-3sc2c1` [Methylene Blue], in series [1], the “quantum yield for 1O2 formation of the standard” value is reported as 0.50.
As for `CCNc1cc2[o+]c3cc(N(CC)CC)ccc3nc2c2ccccc12` [Dye 1, 5-Ethylamino-9-diethylaminobenzo[a]phenoxazinium], the killing of cells in series [2] (wash, 80 J/cm^2) is given as 90%; in [5] (80 J/cm^2), above 97%; in series [6] (wash, 80 J/cm^2 of 635-nm light), 95%. Besides, in series [3], the “LogP, partition coefficient” value was determined as 2.69. Besides, the “cell uptake (molecules per cell), rank order” value in series [4] and in [9] was “EtNBSe (3)>EtNBS (2)>EtNBA (1)” in each case. For the same molecule, in series [7], the “1O2, absolute quantum yield for singlet oxygen formation” value (shortened to “1O2, absolute quantum yield”) came to 0.003. Moreover, the “toxicity in the dark” value in [8] was “little or no toxicity in the dark”. Further, the “fraction of total dye added that was bound to the cells” value in series [10] is on record as “approximately 75%”. For the same molecule, the “cell uptake (molecules per cell), comparison with EtNBSe (3)” value in series [10] (10 minute incubation, wash) is reported as “significantly lower”. In series [11], the “λfl(nm), fluorescence maximum” value was 660 nm. Besides, in [11], the “λabs(nm), absorption maximum” value stood at 632 nm. Also, the “Φfl, absolute fluorescence quantum yield” value in series [11] was 0.27.
On to “5-ethylamino-9-diethylaminobenzo[a]phenothiazinium [Dye 2]”, for which the killing of cells entry in series [2] (wash, 64 J/cm^2) is on record as “more than 99%”; in series [5] (64 J/cm^2) it was above 98%; in [6] (wash, 64 J/cm^2 of 652-nm light) it was above 99.9%. The “LogP, partition coefficient” value in series [3] is 2.76. The “cell uptake (molecules per cell), rank order” value in series [4] and in [9] was “EtNBSe (3)>EtNBS (2)>EtNBA (1)” in each case. Further, in [6], the “comparison of killing curves with and without a wash” value is “the two curves are almost identical”. Also, the “1O2, absolute quantum yield” value in [7] came out at 0.03. In addition, the “toxicity in the dark” value in [8] is given as “little or no toxicity in the dark”. Moreover, the figures for the “fraction of total dye added that was bound to the cells” value in [9] and in series [10] were “approximately 75%” and “essentially quantitative”, respectively. Further, the “λfl(nm), fluorescence maximum” value in series [11] was found to be 693 nm. The “λabs(nm), absorption maximum” value in series [11] is given as 654 nm. Moreover, the “Φfl, absolute fluorescence quantum yield” value in [11] is reported as 0.21.
With `CCN=c1cc2[se]c3cc(N(CC)CC)ccc3nc-2c2ccccc12` [Dye 3, 5-Ethylamino-9-diethylaminobenzo[a]phenoselenazinium chloride], the “comparison of killing curves with and without a wash” value in [2] is “bacteria washed free of incubating solution were actually killed slightly (but not significantly) more than those of the non-wash group”; in [6], “no significant difference in the two killing curves”. The killing of cells in series [2] (wash, 32 J/cm^2) is listed as above 99.9999%; in series [5] (4 J/cm^2), “more than 99%”; in [6] (wash, 8 J/cm^2 of 660-nm light), above 99.999%. Also, the “killing of cells (logs)” value in series [2] (wash, 32 J/cm^2) is above 6 logs; in [6] (wash, 8 J/cm^2 of 660-nm light) it was 5.5 logs. The same molecule came in with a logP in series [3] (between 2-octanol and pH 7.4 buffered saline) of 2.08. Further, the “fraction of total dye added that was bound to the cells” value in [4] is “approximately 75%”; in [9], “essentially quantitative”; in series [10], “essentially quantitative”. Besides, the “cell uptake (molecules per cell), rank order” value in series [4] and in [9] was “EtNBSe (3)>EtNBS (2)>EtNBA (1)” in each case. The “1O2, absolute quantum yield” value in series [7] came out at 0.78. Also, the “λfl(nm), fluorescence maximum” value in series [11] was 703 nm. Moreover, the “λabs(nm), absorption maximum” value in [11] was found to be 661 nm. Also, in [11], the “Φfl, absolute fluorescence quantum yield” value is given as 0.03.
